Values quoted from earlier work as cited in US6909021B2, “Method of extracting lutein from green plant materials” (Alfalfa America, Inc., priority 2003, dated 2005).

Tests used:
[1] = system: age-related macular degeneration (AMD); details: dietary intake
[2] = water wash of green protein chloroplast fraction

Row | solubility in water [2] | Molecule | effect on the rate of AMD [1]
1 |  | CC1=C(/C=C/C(C)=C/C=C/C(C)=C/C=C/C=C(C)/C=C/C=C(C)/C=C/C2=C(C)CCCC2(C)C)C(C)(C)CCC1 [Beta-carotene] | not seen to have an effect
2 | very little solubility | CC1=C[C@H](O)CC(C)(C)[C@H]1/C=C/C(C)=C/C=C/C(C)=C/C=C/C=C(C)/C=C/C=C(C)/C=C/C1=C(C)C[C@@H](O)CC1(C)C [Lutein] | 
3 |  | [Zn] [zinc] | not seen to have an effect
4 |  | vitamin A | not seen to have an effect
5 |  | vitamin E | not seen to have an effect
